# Experiments:
# [1] = molecular target: T1, COX-I (Homo sapiens, UniProt P23219); assay: Human Enzyme Assay, recombinant COX-I (PGE2 ELISA); type: biochemical
# T1 construct: made in house; host or cells: SF9 insect cells, recombinant baculovirus (pVL1393); coding fragment from Cayman Chemical
# Experimental: (§1) The compounds of the invention are evaluated with respect to COX-I and COX-II activity in vitro using an enzyme based assay according to the following assay procedure.
# (§2) (a) Preparation of Recombinant COX Baculoviruses
# (§3) A 2.0 kb fragment containing the coding region for either human or murine COX-I (Caymen Chemical, Ann Arbor, Mich.), or human or murine COX-II (Caymen Chemical, Ann Arbor, Mich.), was cloned into a BamH1 site of the baculovirus transfer vector pVL1393 (Invitrogen, Palo Alto, Calif.) to generate a baculovirus transfer vector. Recombinant baculoviruses were isolated by transfecting 4 μg of baculovirus transfer vector DNA into SF9 cells (2×10e8) (Invitrogen, Palo Alto, Calif.) along with 200 ng of linearized bacium by the phosphate method. See M. D. Summers et al., "A Manual of Methods for Baculovirus Vectors and Insect Cell Culture Procedure," TEXAS AGRICULTURE EXPERIMENTAL STATION BULLETIN, No. 1555 (1987), which is incorporated herein by reference. Recombinant viruses were purified by three rounds of plaque purification, and high titer (10e7-10e8 pfu/ml) stocks of virus were prepared. For large scale production, SF9 insect cells (Invitrogen, Palo Alto, Calif.) were infected in 10 liter fermentors (0.5×10^6 /ml) with the recombinant baculovirus stock, such that the multiplicity of infection was 0.1. After 72 hours, the cells were centrifuged and the cell pellet was homogenized in Tris/Sucrose (50 mM: 25%, pH 8.0) containing 1% CHAPS. The homogenate was centrifuged at 10,000×G for 30 minutes, and the resultant supernatant was stored at -80° C. before being assayed for COX activity.
# (§4) b. Assay for COX-I and COX-II activity:
# (§5) COX activity was assayed as PGE2 formed/μg protein/time using an ELISA (Caymen Chemical, Ann Arbor, Mich.) to detect the prostaglandin E2 released. CHAPS-solubilized insect cell membranes containing the appropriate COX enzyme were incubated in a potassium phosphate buffer (50 mM, pH 8.0) containing phenol (0.5 mM), and heme (1 μM) with the addition of arachidonic acid (10 μM). Compounds of the present invention were pre-incubated with the enzyme for 10-20 minutes prior to the addition of the COX-I and COX-II enzyme substrate arachidonic acid (10 μM). Any reaction between the arachidonic acid and the enzyme was stopped after ten minutes at 37° C./room temperature by transferring 40 μl of reaction mix into […] ELISA buffer and 25 μM indomethacin. The PGE2 formed was measured by standard ELISA technology (Cayman Chemical, Ann Arbor, Mich.).
# (§6) The results for this assay, as well as for the next assay (COX-II Cell Fibroblast Assay) are expressed in terms of COX-I or II activity as an IC50 value (50% inhibitory concentration), as defined as the amount of prostaglandin E2 (PGE2) formed per protein per time in response to the enzyme substrate arachidonic acid.
# [2] = molecular target: T2, COX-II (Homo sapiens, UniProt P35354); assay: Human Enzyme Assay, recombinant COX-II (PGE2 ELISA); type: biochemical
# T2 construct: made in house; host or cells: SF9 insect cells, recombinant baculovirus (pVL1393); coding fragment from Cayman Chemical
# T2 sequence (P35354 18-604): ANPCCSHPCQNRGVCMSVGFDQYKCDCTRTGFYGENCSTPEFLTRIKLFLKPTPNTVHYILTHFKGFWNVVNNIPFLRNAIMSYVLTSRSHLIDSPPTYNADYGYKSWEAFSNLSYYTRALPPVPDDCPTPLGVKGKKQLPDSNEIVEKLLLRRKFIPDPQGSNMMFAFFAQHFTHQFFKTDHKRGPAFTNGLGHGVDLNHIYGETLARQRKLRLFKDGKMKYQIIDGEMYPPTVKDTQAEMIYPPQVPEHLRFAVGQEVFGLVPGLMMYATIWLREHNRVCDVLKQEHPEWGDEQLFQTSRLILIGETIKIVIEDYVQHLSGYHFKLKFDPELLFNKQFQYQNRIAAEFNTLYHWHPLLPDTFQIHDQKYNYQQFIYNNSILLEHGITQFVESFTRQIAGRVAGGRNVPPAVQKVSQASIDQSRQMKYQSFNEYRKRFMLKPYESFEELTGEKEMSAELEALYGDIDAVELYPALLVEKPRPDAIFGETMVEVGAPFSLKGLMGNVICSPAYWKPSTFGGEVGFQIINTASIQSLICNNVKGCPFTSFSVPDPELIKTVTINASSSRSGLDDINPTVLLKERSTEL
# Experimental: as §1, §2, §3, §4, §5, §6
# T1 sequence (P23219 24-599): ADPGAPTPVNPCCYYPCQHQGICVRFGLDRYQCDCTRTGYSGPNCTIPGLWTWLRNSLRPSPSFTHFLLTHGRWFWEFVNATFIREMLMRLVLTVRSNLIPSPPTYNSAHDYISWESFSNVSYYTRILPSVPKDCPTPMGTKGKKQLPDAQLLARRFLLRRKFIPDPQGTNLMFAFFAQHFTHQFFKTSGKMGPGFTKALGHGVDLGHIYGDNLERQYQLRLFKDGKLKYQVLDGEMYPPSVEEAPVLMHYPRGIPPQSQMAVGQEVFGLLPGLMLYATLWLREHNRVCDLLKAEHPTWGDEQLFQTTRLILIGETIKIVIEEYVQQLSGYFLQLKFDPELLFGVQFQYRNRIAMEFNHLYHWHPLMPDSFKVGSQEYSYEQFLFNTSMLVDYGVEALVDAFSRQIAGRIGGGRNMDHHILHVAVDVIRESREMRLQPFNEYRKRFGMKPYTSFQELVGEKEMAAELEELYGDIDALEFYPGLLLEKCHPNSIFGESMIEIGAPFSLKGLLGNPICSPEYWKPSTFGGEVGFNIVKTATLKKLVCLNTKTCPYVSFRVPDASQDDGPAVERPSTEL
smiles,measurement,setting,value
"CC(C)(C)c1cc(S[C@H]2CCCC[C@H]2OCC(=O)O)cc(C(C)(C)C)c1 (racemic) [Example 72, (±)cis-2-[[2-[[3,5-bis(1,1-dimethylethyl)phenyl]thio]cyclohexyl]oxy]acetic acid]",IC50,[1],> 100 µM
same,IC50,[2],4.11 µM

# — patent publication US5476944A, “Derivatives of cyclic phenolic thioethers” (G. D. Searle & Co., priority 1994, dated 1995)
